# Laboratory results: patent publication US12728168B2, “Anti-CEA antibody-exatecan analog conjugate and pharmaceutical use thereof” (JIANGSU HENGRUI MEDICINE CO., LTD., priority 2019, dated 2026)
# Experiments:
# [1] = tested on: HCT116 (without CEA expression); assay: Cytotoxicity of ADCs, Cell Titer-Glo, HCT116; type: cell-based; conditions: for IC50: 5 days
# Experimental: (§1) Following conjugation of humanized CEA antibodies to toxin 2-A, cytotoxicity of each ADC to cancer cell lines with different CEA expression levels was evaluated. The CEA-highly expressing cells MKN45, the CEA-moderately expressing cells LS174T and the CEA-expressing negative cells HCT116 were plated in 96-well plates; gradient-diluted ADC samples were added to the cells the next day, and the cells were cultured at 37° C. for 5 days. 50 μL of Cell Titer-Glo reagent (Promega, Cat #G9242) was added to each well, and after incubation for 10 min in the dark, the luminescence signals were detected by a cell imaging detector (BioTek, Cytation5). An inhibition curve was plotted with the detection results using PRISM analysis software, and fitted to obtain an IC50 value of the inhibitory activity of the ADC against cell proliferation.
# [2] = tested on: LS174T xenograft tumor model; assay: In vivo inhibitory activity against tumors, LS174T xenograft; parameters: species or system BALB/c nude mice
# Experimental: (§2) The in vivo efficacy of the ADC molecules was evaluated using LS174T and MKN45 xenograft tumor models. BALB/c nude mice (SPF grade, Shanghai Slac Laboratory Animal Co., Ltd., certificate no.: 201833814, license no.: SCXK (Jiangsu) 2016-0010) were housed in a 12/12 hour light/dark cycle at a temperature of 23±1° C. with humidity at 40-50%, with food (standard sterilized feed for mice) and water ad libitum. The mice were acclimatized for 10 days in a laboratory environment before the start of the experiment and then inoculated subcutaneously on the right flank with LS174T cells (5×10^5 cells/mouse) or MKN45 cells (4×10^6 cells/mouse). Tumors were allowed to grow to a size of about 150 mm^3, and then the mice were randomized into groups of 8. After grouping, the mice in the experimental groups were intraperitoneally injected with ADC samples in a dose of 1 mg/kg or 3 mg/kg, and those in the blank control group were intraperitoneally injected with PBS, only once. The sizes of the tumors on the mice were observed, measured and recorded.
# [3] = tested on: MKN45 and HCT116 co-cultured; assay: Bystander effect and cytotoxicity, MKN45 and HCT116 co-cultured; type: cell-based; conditions: ADC 4 nM, 5 days, FIG. 2
# Experimental: (§3) In order to evaluate the bystander effect and cytotoxicity of the ADC, the CEA-highly expressing cell line MKN45 and the CEA-expressing negative cell line HCT116 were cultured in a 6-well cell culture plate for 24 h, and then an ADC sample was added at a final concentration of 4 nM. The cells were cultured in a cell incubator at 37° C. for another 5 days.
# (§4) The cells were digested with pancreatin and collected, and CEA Monoclonal Antibody FITC (ThermoFisher, Cat #MA1-80578) was added at a final concentration of 10 μg/mL. The cells were incubated on ice in the dark for 1 h, washed twice with PBS, and counted using a flow cytometer.
# [4] = tested on: MKN45 xenograft tumor model; assay: In vivo inhibitory activity against tumors, MKN45 xenograft; parameters: species or system BALB/c nude mice
# Experimental: as §2
# [5] = tested on: LS174T (with moderate CEA expression); assay: Cytotoxicity of ADCs, Cell Titer-Glo, LS174T; type: cell-based; conditions: for IC50: 5 days
# Experimental: as §1
# [6] = tested on: MKN45 (with high CEA expression); assay: Cytotoxicity of ADCs, Cell Titer-Glo, MKN45; type: cell-based, human; conditions: for IC50: 5 days
# Experimental: as §1
# [7] = tested on: HCT116 cultured alone; assay: Bystander effect test, HCT116 cultured alone; type: cell-based; conditions: ADC 4 nM, 5 days, FIG. 2
# Experimental: as §3, §4
# [8] = target: T1, human soluble CEA (Homo sapiens, UniProt P06731); assay: Affinity of antibodies for soluble CEA using Biacore; type: binding; conditions: 1:1 Langmuir
# T1 construct: His6 (C); made in house; host or cells: 293E cells
# T1 sequence (P06731 with tags, fused parts or gaps): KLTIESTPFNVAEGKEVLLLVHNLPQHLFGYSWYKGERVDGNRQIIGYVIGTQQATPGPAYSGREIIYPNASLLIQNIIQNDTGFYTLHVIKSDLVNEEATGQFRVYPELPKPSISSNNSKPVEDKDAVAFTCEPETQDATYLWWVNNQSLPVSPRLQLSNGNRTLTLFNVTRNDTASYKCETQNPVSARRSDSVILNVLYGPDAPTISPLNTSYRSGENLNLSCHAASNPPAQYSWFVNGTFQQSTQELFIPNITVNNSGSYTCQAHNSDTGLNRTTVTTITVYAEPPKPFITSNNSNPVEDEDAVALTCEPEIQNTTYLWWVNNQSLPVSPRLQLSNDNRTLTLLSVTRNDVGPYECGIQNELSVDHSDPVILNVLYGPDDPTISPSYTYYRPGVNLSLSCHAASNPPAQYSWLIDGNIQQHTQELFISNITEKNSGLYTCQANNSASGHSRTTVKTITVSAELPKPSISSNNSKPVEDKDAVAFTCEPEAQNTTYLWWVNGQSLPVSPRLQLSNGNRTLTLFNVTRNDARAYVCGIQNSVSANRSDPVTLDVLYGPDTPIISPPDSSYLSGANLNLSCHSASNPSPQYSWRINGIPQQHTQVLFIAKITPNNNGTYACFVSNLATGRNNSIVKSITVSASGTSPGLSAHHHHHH
# Experimental: The affinity of a test humanized antibody for human and monkey soluble CEA was determined using a Biacore (GE, T200) instrument. According to the method in the instructions of a human antibody capture kit (GE, Cat #BR-1008-39), the human antibody capture antibody was covalently conjugated to a biosensor chip CM5 (GE, Cat #BR-1005-30) of the Biacore instrument to affinity-capture a certain amount of the test antibody, then a series of concentration gradients of soluble CEA antigens were allow to flow through the surface of the chip, and reaction signals were detected in real time using Biacore, so that an association and dissociation curve was obtained. After each cycle of dissociation was completed, the biochip was washed and regenerated with a regeneration solution prepared in the human antibody capture kit. The data obtained from the experiment were fitted with the (1:1) Langmuir model using BIAevaluation version 4.1 software to obtain affinity values.
# [9] = target: T2, human CEACAM1 expressed on CHO cell surface (CEACAM1-CHO) (Homo sapiens, UniProt P13688); assay: FACS binding assay, CEACAM1-CHO cells; conditions: Table 17, humanized antibodies and controls
# T2 construct: expressed in transfected cells; host or cells: CHO cells
# T2 sequence (P13688 35-526): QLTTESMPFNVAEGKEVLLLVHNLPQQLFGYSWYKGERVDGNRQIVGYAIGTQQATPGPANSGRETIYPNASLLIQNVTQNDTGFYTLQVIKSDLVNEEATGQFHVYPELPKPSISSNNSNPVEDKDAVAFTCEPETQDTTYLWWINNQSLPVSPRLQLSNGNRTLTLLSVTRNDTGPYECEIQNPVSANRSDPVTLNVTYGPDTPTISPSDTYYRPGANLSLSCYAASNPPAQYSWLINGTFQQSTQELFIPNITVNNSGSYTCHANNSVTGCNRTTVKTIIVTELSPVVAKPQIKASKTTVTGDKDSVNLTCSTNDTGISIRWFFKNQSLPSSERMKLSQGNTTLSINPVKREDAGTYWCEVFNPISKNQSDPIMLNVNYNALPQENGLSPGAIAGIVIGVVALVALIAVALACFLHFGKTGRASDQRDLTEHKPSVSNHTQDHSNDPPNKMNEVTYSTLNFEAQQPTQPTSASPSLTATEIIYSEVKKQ
# Experimental: (§5) In order to detect the binding of the antibody to the CEA protein on the cell surface, the binding activity of the antibody was determined by FACS using cells expressing CEA on the cell surface. Cells were harvested and centrifuged at 400 g at 4° C. for 5 min. Pre-cooled PBS containing FBS at final concentration 10% was added, and the mixture was centrifuged at 400 g at 4° C. for 5 min; the procedures were repeated twice. The cells were seeded into a 96-well plate at 10^5 cells/well, and 100 μL of gradient diluted antibody solution was added to each well. The plate was incubated at 4° C. for 60 min and centrifuged, and the supernatant was removed. 250 μL of pre-cooled PBS containing FBS at final concentration 10% was added to each well to resuspend the cells, and the suspension was centrifuged at 400 g at 4° C. for 5 min, followed by the removal of the supernatant; the procedures were repeated twice. 50 μL of 1:200 diluted secondary antibody Alexa Fluor@488 goat anti-human IgG (H+L) (Lifetechologies, Cat #A11013) was added. The plate was incubated in the dark at 4° C. for 45 min and centrifuged, and the supernatant was removed. 250 μL of pre-cooled PBS containing FBS at final concentration 10% was added to each cell to resuspend the cells, and the suspension was centrifuged at 400 g at 4° C. for 5 min; the procedures were repeated twice. 100 μL of pre-cooled PBS was added to each well to resuspend the cells. The plate was analyzed by a flow cytometer (BD, FACSverse) for fluorescence signal values. Higher values indicate higher binding activity of the antibody to the protein on the cell surface. Binding curves were plotted using PRISM analysis software based on the assay results, and the EC50 values for the binding activity of the antibody to the cell surface proteins human CEA (MKN45 human gastric cancer cells, Nanjing Kebai Biotechnology Co., Ltd., Cat #CBP60488), cynoCEA-CHO and CEACAM1-CHO were obtained by fitting.
# [10] = tested on: monkey CEA expressed on CHO cell surface (cynoCEA-CHO); assay: FACS binding assay, cynoCEA-CHO cells; parameters: species or system cynomolgus monkey; conditions: Table 17, humanized antibodies and controls
# Experimental: as §5, with “The cells were seeded into a 96-well plate at 10^5 cells/well, and 100 μL of gradient diluted antibody solution was added to each well.” left out, “values.” for “values. Higher values indicate higher binding activity of the antibody to the protein on the cell surface. Binding curves were plotted using PRISM analysis software based on the assay results, and the EC50 values for the binding activity of the antibody to the cell surface proteins human CEA (MKN45 human gastric cancer cells, Nanjing Kebai Biotechnology Co., Ltd., Cat #CBP60488), cynoCEA-CHO and CEACAM1-CHO were obtained by fitting.”
# [11] = ADC batches of high DAR (6.29-7)
# [12] = ADC batches of low DAR (3.97-4.8)
# Sequence of monkey CEA expressed on CHO cell surface (cynoCEA-CHO) (as listed by the source): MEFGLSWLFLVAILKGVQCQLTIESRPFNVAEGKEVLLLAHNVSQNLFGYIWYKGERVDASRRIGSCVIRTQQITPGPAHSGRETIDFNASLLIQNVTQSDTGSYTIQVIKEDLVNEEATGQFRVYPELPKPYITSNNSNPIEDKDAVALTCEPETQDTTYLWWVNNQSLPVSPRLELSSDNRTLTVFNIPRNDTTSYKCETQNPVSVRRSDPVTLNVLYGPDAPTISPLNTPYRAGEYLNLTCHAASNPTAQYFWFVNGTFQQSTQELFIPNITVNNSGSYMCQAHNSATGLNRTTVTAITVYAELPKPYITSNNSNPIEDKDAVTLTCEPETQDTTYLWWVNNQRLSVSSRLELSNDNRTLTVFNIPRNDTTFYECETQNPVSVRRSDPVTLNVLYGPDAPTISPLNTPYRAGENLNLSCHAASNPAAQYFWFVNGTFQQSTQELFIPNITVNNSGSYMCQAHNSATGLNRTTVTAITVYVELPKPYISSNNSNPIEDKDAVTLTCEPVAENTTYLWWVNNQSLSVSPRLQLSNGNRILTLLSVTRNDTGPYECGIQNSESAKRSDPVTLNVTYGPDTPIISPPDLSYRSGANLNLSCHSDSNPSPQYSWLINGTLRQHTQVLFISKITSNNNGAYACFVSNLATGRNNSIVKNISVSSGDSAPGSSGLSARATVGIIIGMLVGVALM
substance,measurement,setting,value
Lmab-CL2A-SN38: control ADC: toxin CL2A-SN38 conjugated to Lmab (labetuzumab),IC50,[1]; [11],0.428 nM
same,IC50,[1]; [12],1.06 nM
same,dependence of cytotoxicity on CEA expression level,"[1]; MKN45, LS174T and HCT116 compared",non-specific cytotoxicity
same,Tumor inhibition rate (%),"[2]; 3 mpk, intraperitoneal, only once",33.44%
same,effect on tumor volume,"[2]; FIG. 3, ranking among the 3-mpk groups",the worst inhibitory effect on tumors
same,effect on tumor weight,"[2]; FIG. 4, last day, ranking among the 3-mpk groups",the worst inhibitory effect on tumors
same,bystander effect and cytotoxicity,[3],very toxic
same,Tumor inhibition rate (%),"[4]; 3 mpk, intraperitoneal, only once, 3 mg/kg",13.51%
same,effect on tumor volume,"[4]; FIG. 5, ranking among the 3-mpk groups",the worst inhibitory effect on tumors
same,effect on tumor weight,"[4]; FIG. 6, last day, ranking among the 3-mpk groups",the worst inhibitory effect on tumors
same,IC50,[5]; [11],0.346 nM
same,IC50,[5]; [12],0.662 nM
same,IC50 ratio HCT116/LS174T,[5]; [11],1.24
same,IC50 ratio HCT116/LS174T,[5]; [12],1.60
same,IC50,[6]; [11],0.665 nM
same,IC50,[6]; [12],1.59 nM
same,IC50 ratio HCT116/MKN45,[6]; [11],0.64
same,IC50 ratio HCT116/MKN45,[6]; [12],0.66
same,toxicity to HCT116 cultured alone,[7],very toxic
Lmab [reference compound],ka,[8],55800 M⁻¹ s⁻¹
same,kd,[8],0.000331 s⁻¹
same,EC50 (nM) CEACAM1-CHO,[9],No binding
same,EC50 (nM) cynoCEA-CHO,[10],No binding
